System: HCV2aChLuc virus
Test: In vitro HCVcc entry assay: HCV2aChLuc virus infection of Huh7 cells, Renilla luciferase read-out
Type: cell-based, HCV genotype 2a
Details: Hepatitis C virus, Huh-7, read-out: Activity class (IC50), tested according to the method of Example 3

Row | SMILES | IC50
1 | COc1c(C#N)cc(C(C)(C)C)cc1NC(=O)C(=O)c1ccc(OCCN2CCOCC2)c2ccccc12 [Compound 4, N-(5-tert-butyl-3-cyano-2-methoxyphenyl)-2-(4-(2-morpholinoethoxy)naphthalen-1-yl)-2-oxoacetamide] | < 5 nM
2 | O=C(NC1CCc2ccccc21)C(=O)c1ccc(OCCN2CCOCC2)c2ccccc12 (centres unmarked) [Compound 115] | > 500 nM
3 | COc1c(C)cc(C(C)(C)C)cc1NC(=O)C(=O)c1ccc(OCCN2CCOCC2)c2ccccc12 [Compound 31] | > 500 nM
4 | COc1c(NC(=O)C(=O)c2ccc(OCCN3CCOCC3)c3cccc(Cl)c23)cc(C(C)(C)C)cc1NS(C)(=O)=O [Compound 76] | > 500 nM
5 | COc1c(NC(=O)C(=O)c2ccc(OCCN3CCOCC3)c3ccccc23)cc(C(C)(C)C)cc1C(=O)N1CCN(CCO)CC1 [Compound 101] | > 500 nM
6 | CC(C)(C)c1cc(NC(=O)C(=O)c2ccc(OCCN3CCOCC3)c3ccccc23)cc(NS(C)(=O)=O)c1 [Compound 109] | 5 to 500 nM
7 | CCNC(=O)c1cc(C(C)(C)C)cc(NC(=O)C(=O)c2ccc(OC)c3ccccc23)c1OC [Compound 8, 5-tert-butyl-N-ethyl-2-methoxy-3-(2-(4-methoxynaphthalen-1-yl)-2-oxoacetamido)benzamide] | < 5 nM
8 | CC(C)Oc1ccc(C(C)(C)C)cc1NC(=O)C(=O)c1ccc(OCCN2CCOCC2)c2ccccc12 [Compound 42] | > 500 nM
9 | COc1c(NC(=O)C(=O)c2ccc(OCCN3CCOCC3)c3ccc(Cl)cc23)cc(C(C)(C)C)cc1NS(C)(=O)=O [Compound 74] | 5 to 500 nM
10 | CC(C)(C)c1cccc(NC(=O)C(=O)c2ccc(OCCN3CCOCC3)c3ccccc23)c1 [Compound 27] | > 500 nM
11 | COCCNC(=O)c1cc(C(C)(C)C)cc(NC(=O)C(=O)c2ccc(OCCN3CCOCC3)c3ccccc23)c1OC [Compound 9, 5-tert-butyl-2-methoxy-N-(2-methoxyethyl)-3-(2-(4-(2-morpholinoethoxy)naphthalen-1-yl)-2-oxoacetamido)benzamide] | < 5 nM
12 | COc1c(NC(=O)C(=O)c2ccc(OCCN3CCN(C(C)=O)CC3)c3ccccc23)cc(C(C)(C)C)cc1NS(C)(=O)=O [Compound 54] | 5 to 500 nM
13 | COc1c(C#N)cc(C(C)(C)C)cc1NC(=O)C(=O)c1ccc(Nc2ccnc(N3CCCC3)n2)c2ccccc12 [Compound 95] | > 500 nM
14 | COc1c(NC(=O)C(=O)c2ccc(OCCN3CCOCC3)c3ccccc23)cc(C(C)(C)C)cc1NC(=O)N1CCCC1 [Compound 22] | 5 to 500 nM
15 | COc1c(NC(=O)C(=O)c2ccc(OCCn3ccnc3)c3ccccc23)cc(C(C)(C)C)cc1NS(C)(=O)=O [Compound 55] | 5 to 500 nM
16 | O=C(Nc1cccc2c1CCC2)C(=O)c1ccc(OCCN2CCOCC2)c2ccccc12 [Compound 65] | 5 to 500 nM
17 | COc1ccc(C(F)(F)F)cc1NC(=O)C(=O)c1ccc(OCCN2CCOCC2)c2ccccc12 [Compound 28] | > 500 nM
18 | COc1c(NC(=O)C(=O)c2ccc(OCCN(C)C)c3ccccc23)cc(C(C)(C)C)cc1NS(C)(=O)=O [Compound 80] | > 500 nM
19 | CC(C)(C)c1nnc(NC(=O)C(=O)c2ccc(OCCN3CCOCC3)c3ccccc23)s1 [Compound 61] | > 500 nM
20 | CC(C)(C)c1cc(C#N)cc(NC(=O)C(=O)c2ccc(Br)c3ccccc23)c1 [Compound 88] | > 500 nM
21 | COc1c(NC(=O)C(=O)c2ccc(OCCN3CCOCC3)c3ccccc23)cc(C(C)(C)C)cc1C(=O)N1CCCCC1 [Compound 25] | 5 to 500 nM

Row | SMILES | IC50
22 | O=C(Nc1cc(Br)cnc1Cl)C(=O)c1ccc(OCCN2CCOCC2)c2ccccc12 [Compound 119] | 5 to 500 nM
23 | COc1c(NC(=O)C(=O)c2ccc(OCCN3CCOCC3)c3ccccc23)cc(C(C)(C)C)cc1-n1ccnn1 [Compound 108] | 5 to 500 nM
24 | COc1c(NC(=O)C(=O)c2ccc(Br)c3ccccc23)cc(C(C)(C)C)cc1NS(C)(=O)=O [Compound 128] | > 500 nM
25 | CCN(CC)CCOc1ccc(C(=O)C(=O)Nc2cc(C(C)(C)C)cc(NS(C)(=O)=O)c2OC)c2ccccc12 [Compound 79] | > 500 nM
26 | CC(C)(C)c1cc(C(F)(F)F)nc(NC(=O)C(=O)c2ccc(OCCN3CCOCC3)c3ccccc23)n1 [Compound 47] | > 500 nM
27 | CC(C)(C)c1cc(NC(=O)C(=O)c2ccc(OCCN3CCOCC3)c3ccccc23)[nH]n1 [Compound 44] | > 500 nM
28 | Cc1ccc(-n2nc(C(C)(C)C)cc2NC(=O)C(=O)c2ccc(OCCN3CC[S+]([O-])CC3)c3ccccc23)cc1 [Compound 37] | > 500 nM
29 | Cc1ccc(C(C)C)cc1NC(=O)C(=O)c1ccc(OCCN2CCOCC2)c2ccccc12 [Compound 62] | 5 to 500 nM
30 | COc1c(NC(=O)C(=O)c2ccc(OCC[N+]3([O-])CCOCC3)c3ccccc23)cc(C(C)(C)C)cc1NS(C)(=O)=O [Compound 92] | 5 to 500 nM
31 | CCNC(=O)c1cc(C(C)(C)C)cc(NC(=O)C(=O)c2ccc(OCCN3CCOCC3)c3ccccc23)c1O [Compound 71] | 5 to 500 nM
32 | COc1c(NC(=O)C(=O)c2ccc(OCCN3CCOCC3)c3ccccc23)cc(C(C)(C)C)cc1C(=O)N1CCNCC1 [Compound 97] | > 500 nM
33 | O=C(NC1Cc2ccccc2C1)C(=O)c1ccc(OCCN2CCOCC2)c2ccccc12 [Compound 114] | > 500 nM
34 | CC(C)(C)c1cc(NC(=O)C(=O)c2ccc(OCCN3CCOCC3)c3ccccc23)on1 [Compound 70] | > 500 nM
35 | O=C(Nc1cc(C(F)(F)F)ccc1Br)C(=O)c1ccc(OCCN2CCOCC2)c2ccccc12 [Compound 83] | > 500 nM
36 | COc1c(NC(=O)C(=O)c2ccc(OCCN(CCOCc3ccccc3)CCOCc3ccccc3)c3ccccc23)cc(C(C)(C)C)cc1NS(C)(=O)=O [Compound 93] | > 500 nM
37 | CC(C)(C)CC(C)(C)NC(=O)C(=O)c1ccc(OCCN2CCOCC2)c2ccccc12 [Compound 67] | > 500 nM
38 | CCCS(=O)(=O)Nc1cc(C(C)(C)C)cc(NC(=O)C(=O)c2ccc(N3CCC(CC(=O)OCC)CC3)c3ccccc23)c1OC [Compound 87] | > 500 nM
39 | COc1c(NC(=O)C(=O)c2ccc(OCCN3CCOCC3)c3ccccc23)cc(C(C)(C)C)cc1C(=O)N1CCOCC1 [Compound 24] | 5 to 500 nM
40 | COc1c(NC(=O)C(=O)c2ccc(OCCN3CCOCC3)c3ccccc23)cc(C(C)(C)C)cc1C(=O)NC1CCNCC1 [Compound 105] | > 500 nM
41 | O=C(Nc1ccc2c(c1)OCCO2)C(=O)c1ccc(OCCN2CCOCC2)c2ccccc12 [Compound 90] | > 500 nM
42 | Cc1ccc(C)c(NC(=O)C(=O)c2ccc(OCCN3CCOCC3)c3ccccc23)c1 [Compound 63] | > 500 nM

Row | SMILES | IC50
43 | COCCOCCOc1ccc(C(=O)C(=O)Nc2cc(C(C)(C)C)cc(NS(C)(=O)=O)c2OC)c2ccccc12 [Compound 86] | > 500 nM
44 | CC(C)(C)CCNC(=O)C(=O)c1ccc(OCCN2CCOCC2)c2ccccc12 [Compound 66] | > 500 nM
45 | COc1ccc(C(C)(C)c2ccccc2)cc1NC(=O)C(=O)c1ccc(OCCN2CCOCC2)c2ccccc12 [Compound 16, N-(2-methoxy-5-(2-phenylpropan-2-yl)phenyl)-2-(4-(2-morpholinoethoxy)naphthalen-1-yl)-2-oxoacetamide] | < 5 nM
46 | COc1ccc(C2CCCCC2)cc1NC(=O)C(=O)c1ccc(OCCN2CCOCC2)c2ccccc12 [Compound 15, N-(5-cyclohexyl-2-methoxyphenyl)-2-(4-(2-morpholinoethoxy)naphthalen-1-yl)-2-oxoacetamide] | < 5 nM
47 | CCCNC(=O)c1cc(C(C)(C)C)cc(NC(=O)C(=O)c2ccc(OCCN3CCOCC3)c3ccccc23)c1OC [Compound 18, 5-tert-butyl-2-methoxy-3-(2-(4-(2-morpholinoethoxy)naphthalen-1-yl)-2-oxoacetamido)-N-propylbenzamide] | < 5 nM
48 | O=C(Nc1n[nH]c2ccccc12)C(=O)c1ccc(OCCN2CCOCC2)c2ccccc12 [Compound 113] | > 500 nM
49 | O=C(Nc1cc(C(F)(F)F)ccc1Cl)C(=O)c1ccc(OCCN2CCOCC2)c2ccccc12 [Compound 82] | > 500 nM
50 | COc1c(NC(=O)C(=O)c2ccc(Br)c3ccccc23)cc(C(C)(C)C)cc1C(=O)NC1CC1 [Compound 135] | < 5 nM
51 | COc1c(NC(=O)C(=O)c2ccc(-c3ccc(N(C)C)nc3)c3ccccc23)cc(C(C)(C)C)cc1NS(C)(=O)=O [Compound 125] | > 500 nM
52 | CC(C)(C)c1cc(NC(=O)C(=O)c2ccc(OCCN3CCOCC3)c3ccccc23)n(C(C)(C)C)n1 [Compound 59] | > 500 nM
53 | COc1c(NC(=O)C(=O)c2ccc(OCCN3CCOCC3)c3ccccc23)cc(C(C)(C)C)cc1C(=O)N1CCN(C)CC1 [Compound 98] | > 500 nM
54 | COc1c(NC(=O)C(=O)c2ccc(OCCN3CCOCC3)c3ccccc23)cc(C(F)(F)F)cc1NS(C)(=O)=O [Compound 116] | > 500 nM
55 | COc1c(NC(=O)C(=O)c2ccc(OCCN3CC(C)OC(C)C3)c3ccccc23)cc(C(C)(C)C)cc1NS(C)(=O)=O (centres unmarked) [Compound 57] | 5 to 500 nM
56 | COc1c(NC(=O)C(=O)c2ccc(OCCN(CCO)CCO)c3ccccc23)cc(C(C)(C)C)cc1NS(C)(=O)=O [Compound 3, 2-(4-(2-(bis(2-hydroxyethyl)amino)ethoxy)-naphthalen-1-yl)-N-(5-tert-butyl-2-methoxy-3-(methylsulfonamido)phenyl)-2-oxoacetamide] | < 5 nM
57 | CCOc1ccc(C(C)(C)C)cc1NC(=O)C(=O)c1ccc(OCCN2CCOCC2)c2ccccc12 [Compound 41] | > 500 nM
58 | COc1c(NC(=O)C(=O)c2ccc(Nc3ccnc(N4CCOCC4)n3)c3ccccc23)cc(C(C)(C)C)cc1C(N)=O [Compound 124] | > 500 nM
59 | Cc1ccc(-n2nc(C(C)(C)C)cc2NC(=O)C(=O)c2ccc(CCN3CCNCC3)c3ccccc23)cc1 [Compound 39] | > 500 nM
60 | COc1c(NC(=O)C(=O)c2ccc(OCCN3CCOCC3)c3ccccc23)cc(C(C)(C)C)cc1C(=O)N1CCNC(=O)C1 [Compound 26] | 5 to 500 nM
61 | Cc1cc(C(C)(C)C)cc(NC(=O)C(=O)c2ccc(OCCN3CCOCC3)c3ccccc23)c1O [Compound 30] | > 500 nM
62 | COC(=O)c1sc(C(C)(C)C)cc1NC(=O)C(=O)c1ccc(OCCN2CCOCC2)c2ccccc12 [Compound 11, methyl 5-tert-butyl-3-(2-(4-(2-morpholinoethoxy)naphthalen-1-yl)-2-oxoacetamido)thiophene-2-carboxylate] | < 5 nM

Source: patent US20110117055A1, “Methods of Treating Hepatitis C Virus with Oxoacetamide Compounds” (priority 2009, published 2011)
